According to patent US6733995B2, “Cathepsin L, its prepro form and the corresponding propeptide from ciliates” (Nutrinova Nutrition Specialties & Food Ingredients GmbH, priority 1996, dated 2004):
Non-standard residues stand in square brackets, D forms with d. Residues, ends and D or L forms follow the SMILES beside them. *: point of attachment. Sta = CC(C)C[C@H](N)[C@@H](O)CC(=O)O; Isovaleryl = CC(C)CC(=O)*

biological target: T1, Paramecium cathepsin L isozymes (30 kDa and 33 kDa) (Paramecium tetraurelia, UniProt Q94714); test: Effect of class-specific protease inhibitors on the purified Paramecium proteases (cathepsin L assay); assay type: biochemical; conditions: 32P phosphorylase a as substrate
T1 construct: identical enzyme proteins were involved, with the proteins possibly only being processed differently; from tissue; host or cells: Paramecium tetraurelia mass cultures (cell homogenate)
T1 sequence (Q94714 110-314): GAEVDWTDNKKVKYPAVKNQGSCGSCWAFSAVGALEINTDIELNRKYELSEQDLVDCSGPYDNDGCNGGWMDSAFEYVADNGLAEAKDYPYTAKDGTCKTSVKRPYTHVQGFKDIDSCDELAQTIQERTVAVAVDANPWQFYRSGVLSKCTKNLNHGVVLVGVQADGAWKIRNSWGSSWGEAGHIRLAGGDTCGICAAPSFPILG
Protocol: ^32P-Phosphorylase a (approx. 5×10^4 cpm/min) was used as substrate. A test mixture (30 μl) contained 10 μM substrate, 12 mM Tris/HCl (pH 7.0), 50 μM EDTA, 10 mM 2-mercaptoethanol, 5 mM caffeine and 6.7 μg of BSA. The reaction was stopped, after incubating at 30° C. for 10 minutes, by adding 200 μl of trichloroacetic acid (20% w/v). The radioactivity of the non-precipitable peptides was determined in the supernatant following centrifugation. One unit of enzyme activity corresponds to the quantity which liberates 1 μmol of soluble ^32P-phosphopeptide/min.
All the purification steps were carried out at 4° C. The cells were homogenized in 50 mM Tris/HCl (pH 7.0), 5 mM EDTA using a French press. Cell debris were removed by centrifugation (23,000×g, 60 min; 100,000×g, 60 min). The supernatant was loaded onto a DEAE Sepharose® column which was equilibrated with 20 mM Tris/HCl (pH 7.0). About half the protease activity eluted with the flowthrough. The column was washed with 250 mM NaCl. The remaining protease activity was eluted with 450 mM KCl. After that, the active fractions were purified through a Sephacryl® S-100 HR column. The protease eluted at approximately 27 kDa. The pooled active fractions were subsequently loaded onto a mono Q column. Elution was carried out using a linear gradient (60 ml of from 100 to 350 mM NaCl). Two active proteases (30 kDa and 33 kDa) were separated in this step. Purity was examined by means of SDS-PAGE. When using ^32P phosphorylase a as substrate, the pH optimum of the two isozymes was 6.5; the temperature optimum was 56° C.

Row | Molecule | effect of inhibitor on protease activity
1 | O=C(O)CN(CCN(CC(=O)O)CC(=O)O)CC(=O)O [EDTA] | no inhibitory effect
2 | Cc1ccc(S(=O)(=O)NC(CCCCN)C(=O)CCl)cc1 (stereo not drawn) [TLCK] | reduced the activity drastically
3 | CC(=O)N[C@@H](CC(C)C)C(=O)N[C@@H](CC(C)C)C(=O)N[C@H](C=O)CCCNC(=N)N [leupeptin] | reduced the activity drastically
4 | CC(C)CC(=O)N[C@H](C(=O)N[C@H](C(=O)N[C@@H](CC(C)C)[C@@H](O)CC(=O)N[C@@H](C)C(=O)N[C@@H](CC(C)C)[C@@H](O)CC(=O)O)C(C)C)C(C)C [pepstatin] (Isovaleryl-VV[Sta]A[Sta]-OH) | no inhibitory effect
5 | aprotinin | no inhibitory effect
6 | cystatin | reduced the activity drastically
